SMILES strings stand for the structures. pIC50: −log10 of the molar value. Some results are limits rather than exact numbers.

Holding throughout (format): functional, cell-based
One test has as its system KB. The test is described as follows: Cytotoxicity against human KB cells after 48 hrs by MTT assay. (Formazan colour is commonly taken as a measure of viable cells.)
In a further test the test system is HeLa S3. The test is described as follows: Cytotoxicity against human HeLaS3 cells after 48 hrs by MTT assay. The settings on record: HeLa S3, 48 h.
The next test relates to HT-29. The test is described as follows: Cytotoxicity against human HT-29 cells after 48 hrs by MTT assay. The conditions noted are these: HT-29, 48 h.
A further test concerns HepG2. The test is described as follows: Cytotoxicity against human HepG2 cells after 48 hrs by MTT assay. The conditions noted are these: HepG2, 48 h.
Another test relates to MCF7. The test is described as follows: Cytotoxicity against human MCF7 cells after 48 hrs by MTT assay. The settings on record: MCF7, 48 h.

For orientation: pIC50 means the negative decadic logarithm of the IC50, by convention in mol/L. A lower pIC50 goes with a high IC50. On to `COc1ccc2c(c1)COc1c-2oc2c(C)c(O)c(C)c(OC)c2c1=O`, for which the pIC50 in the test with KB, in the test on HeLa S3, in the test with HT-29, in the test with HepG2 and in the test with MCF7 was < 5.00 in each case.
Regarding `COc1ccc2c(c1)COc1c-2oc2c(C)c(O)c(C)c(O)c2c1=O`, the pIC50 in the test on KB was 5.09; with HeLa S3, 5.08; in the test with HT-29 it was 5.06; in the test with HepG2, 5.13; in the test on MCF7, 5.01.
The corresponding values for `COc1c(C)c(O)c(C)c2oc3c(c(=O)c12)OCc1ccccc1-3` are < 5.00, < 5.00, < 5.00, < 5.00 and < 5.00.
As for `COc1c(C)c(OC)c2c(=O)c3c(oc2c1C)-c1ccccc1CO3`, the negative logarithm of the IC50 (pIC50) in the test with KB, in the test with HeLa S3, in the test with HT-29, with HepG2 and with MCF7 was < 5.00 in each case.
Turning to `Cc1c(O)c(C)c2oc3c(c(=O)c2c1O)OCc1ccccc1-3`, the pIC50 with KB, with HeLa S3, in the test with HT-29, with HepG2 and in the test with MCF7 was < 5.00 throughout.
As for `COc1c(C)c(OC)c2c(=O)c3c(oc2c1C)-c1c(O)cccc1CO3`, the pIC50 with KB, in the test with HeLa S3, with HT-29, in the test with HepG2 and in the test with MCF7 was < 5.00 throughout.
As for `COc1c(C)c(O)c2c(=O)c3c(oc2c1C)-c1c(O)cccc1CO3`, the pIC50 is 5.18 with KB; < 5.00 with HeLa S3; < 5.00 with HT-29; < 5.00 in the test on HepG2; < 5.00 in the test on MCF7.
For the compound `Cc1c(O)c(C)c2oc3c(c(=O)c2c1O)OCc1cccc(O)c1-3`, the pIC50 in the test with KB is 5.05; in the test on HeLa S3, < 5.00; in the test on HT-29 it was < 5.00; in the test with HepG2 it was < 5.00; with MCF7, < 5.00.
Turning to `COc1cccc2c1C(=O)c1c(O)c3c(c(O)c1C2=O)C[C@@](O)(C(=O)CO)C[C@@H]3O[C@H]1C[C@H](N)[C@H](O)[C@H](C)O1` [DOXORUBICIN], the pIC50 with KB was 7.05; in the test with HT-29, 6.59; in the test on HepG2 it was 5.81.

For the origin of these results see ChEMBL document CHEMBL4477172, “Bougainvinones A-H, Peltogynoids from the Stem Bark of Purple Bougainvillea spectabilis and Their Cytotoxic Activity” (J Nat Prod, 2016).
